These are literature values, as cited in PMC3807987 (Pharmacognosy Research, 2013).

Where two headings read alike, the source gives them in different places.

The series concerns CYP2D6.

Turning to `CN[C@H]1CC[C@@H](c2ccc(Cl)c(Cl)c2)c2ccccc21` [Sertraline], the CYP2D6 inhibition strength result is recorded as “mild inhibitor” (dose of 50 mg) and “potent inhibitor” (dose of 200 mg).
